Laboratory results as given in US20110105603A1, “COMPOSITIONS AND METHODS FOR TREATING BETA-AMYLOID RELATED DISEASES” (priority 2009, published 2011).

Legend:
[1] = test system: dogs with canine dementia; settings: in one month; cited from earlier work
[2] = molecular target: Cathepsin B (Homo sapiens, UniProt P07858); assay: biochemical
[3] = test system: Aβ40 and Aβ42; assay: Example 9: brain, CSF and plasma Aβ after once-a-day gavage in guinea pigs; type: in vivo, guinea pig; settings: once-a-day for one week oral
Text: Guinea Pigs. Guinea Pigs (Harley strain, average weight 400 g corresponding to animals about 6 weeks old) were obtained from Charles River (Wilmington, Mass.). The animals were given free access to standard chow and water before and during the experiment. Gavage Formulation: Delivering a drug by gavage offers the advantage of accurate dosing but is traumatic and thus only suitable for relatively short dosing periods. Gavage delivery was used for the guinea pig work. E64d was resuspended in DMSO at indicated concentrations (see Figures, and below) and guinea pigs were gavaged daily using a feeding tube. Vehicle control animals were provided DMSO alone. Guinea Pig Gavage Dosing: Guinea pigs were gavaged daily for one week. Guinea pigs were lightly anesthetized with isoflurane prior to gavaging. 250 μl of compound solution was gavaged daily per animal and animals were sacrificed 4 hrs after the last dosing.

[4] = test system: cathepsin B; assay: Example 9: brain cathepsin B activity in guinea pigs; type: in vivo, guinea pig; settings: once-a-day oral
Method: (§1) Guinea Pig Gavage Dosing: Guinea pigs were gavaged daily for one week. Guinea pigs were lightly anesthetized with isoflurane prior to gavaging. 250 μl of compound solution was gavaged daily per animal and animals were sacrificed 4 hrs after the last dosing.
The brain cathepsin B activity in guinea pigs was measured as follows: Cathepsin B activity was determined using a fluorometric assay kit from Abcam, Inc. (catalog ab65300; Cambridge, Mass.) as described by the manufacturer.

[5] = test system: BACE1; assay: Example 9: brain BACE1 activity in guinea pigs; type: in vivo, guinea pig; settings: once-a-day oral
Method: as §1, with “dosing. The brain BACE1 activity in guinea pigs was measured by Beta secretase activity was determined using a fluorometric assay kit from Abcam (ab65357) as described by the manufacturer.” for “dosing.”

[6] = test system: rats; settings: cited from earlier work
[7] = animals, radioactive AB-007; cited from earlier work
[8] = test system: brain Aβ40 and brain Aβ42; assay: Example 8: brain Aβ40 and Aβ42 ELISA after oral gavage in wild-type guinea pigs; type: in vivo; settings: guinea pig, 10 mg/kg/day oral, 7 days
[9] = test system: transgenic APPlon mice; assay: Example 9: Morris water maze, spatial memory deficit in transgenic APPlon mice; settings: E64d-doped chow 1 or 3 months, either age group
Text: Transgenic AD Mice. Transgenic mice expressing human APP containing the wt β-secretase site and the London mutant γ-secretase site sequences (also called “transgenic APPlon mice”, or “London APP mice”) were generated at the Ralph A. Johnson VA Medical Center (Charleston, S.C.) by methods previously described, see e.g., Hook, et al. (2008) J. Biol. Chem. 283:7745-7753. Briefly, APPLn was generated using site-directed mutagenesis to insert the V7171 London mutation into human APP cDNA. The mouse strain was created in a C57BL/6 mouse background using the Thy-1.2 expression cassette driven by the Thy-1 promoter containing an SV40 polyadenylation site. Mice were given free access to food and water before and during the experiment. […]
The memory deficit in transgenic APPln mice (APPlon mice) was measured using the Morris water maze test. Briefly, the spatial memory capability of each animal was assessed by the Morris water maze test as described e.g., by S. Mueller-Steiner (2006) Neuron 51:703-714; using catalog part no. […] Two days following the nonspatial pretraining, the hidden platform was placed in the center of one quadrant of the pool, the animal was released facing the pool wall in a random fashion, the time was recorded (latency period), and the distance traveled to reach the platform was measured using video recording (Smart Video Tracking System; SD Instruments).

[10] = cited from earlier work
[11] = test system: dogs; settings: cited from earlier work
[12] = test system: healthy human volunteers; settings: single or continuous 1 week oral administration at about 5 mg/kg/day; cited from earlier work
[13] = oral; cited from earlier work

SMILES: C#CCN(C)[C@H](C)Cc1ccccc1 [Anipryl]
- affected dogs with improved behavior [1]: about 75%

SMILES: CC(C)CCNC(=O)[C@H](CC(C)C)NC(=O)[C@H]1O[C@@H]1C(=O)O [Compound E64c]
- IC50 [2]: 1 nM

SMILES: [2H]C([2H])([2H])C([2H])(CCNC(=O)[C@H](CC(C)C)NC(=O)[C@H]1O[C@@H]1C(=O)OCC)C([2H])([2H])[2H] [Compound E64d7]
- CSF Aβ [3]: dose response reduction
- CSF Aβ(42) [3]: dose response reduction
- brain Aβ(40) [3]: dose response reduction
- brain Aβ(42) [3]: dose response reduction
- plasma Aβ(40) [3]: dose response reduction
- plasma Aβ(42) [3]: dose response reduction
- brain cathepsin B activity [4]: dose response reduction
- brain BACE1 activity [5]: increase

SMILES: CCOC(=O)[C@H]1O[C@@H]1C(=O)N[C@@H](CC(C)C)C(=O)NCCC(C)C (relative stereo) [AB-007, (2S,3S)-trans-epoxysuccinyl-L-leucyl-amido-3-methylbutane ethyl ester]
- CSF Aβ [3]: dose response reduction
- CSF Aβ(42) [3]: dose response reduction
- brain Aβ(40) [3]: dose response reduction
- brain Aβ(42) [3]: dose response reduction
- plasma Aβ(40) [3]: dose response reduction
- plasma Aβ(42) [3]: dose response reduction
- brain cathepsin B activity [4]: dose response reduction
- subacute no-effect dose ([6]; oral, rats): under 80 mg/kg/day
- chronic toxicity no-effect dose level ([6]; rat, in vivo): below 2 mg/kg/day
- target organs for toxicity ([6]; rat, in vivo): liver and kidney
- hepatic injury, species sensitivity ([6]; rats versus other species): hepatic injury seen in rats does not occur in other species
- concentration in all other organs, including the brain [7]: corresponding to the plasma concentration or concentrations lower than plasma
- kidney concentration relative to plasma concentration [7]: ~12 times
- reduction of brain Aβ42 relative to vehicle control [8]: 42%
- brain BACE1 activity [5]: increase
- mean latency period relative to age-matched controls [9]: significantly reduced
- effect on the central nervous system ([10]; high oral doses (500 mg/kg and 1 g/kg)): depress the central nervous system, causing sedation and mild inhibition of pentetrazol-induced seizure
- influence on vision or hearing ([10]; maximal intravenous or oral doses, rats): do not influence vision or hearing
- chronic toxicity no-effect dose level ([11]; dog, in vivo): < 5 mg/kg/day
- subacute no-effect dose ([11]; oral, dogs): < 40 mg/kg/day
- hematological tests, blood chemistry, urinalyses [12]: no changes
- pulse, blood pressure, body temperature, grip force, electrocardiogram, physician observations [12]: no change
- conversion in the gut to E64c [13]: rapidly and completely converted

SMILES: [2H][C@@](CC(C)C)(NC(=O)[C@H]1O[C@@H]1C(=O)O)C(=O)NCCC(C)C [Compound 3B, (2S,3S)-3-((S)-2-d1-1-(isopentylamino)-4-methyl-1-oxopentan-2-ylcarbamoyl)oxirane-2-carboxylic acid]
- IC50 [2]: 1.9 nM

SMILES: [2H]C([2H])([2H])C(C)C[C@H](NC(=O)[C@H]1O[C@@H]1C(=O)O)C(=O)NCCC(C)C (stereo partly drawn) [Compound 1B, (2S,3S)-3-((S)-1-(Isopentylamino)-4-methyl-d3-1-oxopentan-2-ylcarbamoyl)oxirane-2-carboxylic acid]
- IC50 [2]: 2 nM

SMILES: [2H]C([2H])([2H])C([2H])(C[C@H](NC(=O)[C@H]1O[C@@H]1C(=O)O)C(=O)NCCC(C)C)C([2H])([2H])[2H] [Compound 2B, (2S,3S)-3-((S)-4,5,5,5-d4-1-(isopentylamino)-1-oxo-4-(methyl-d3)pentan-2-ylcarbamoyl)oxirane-2-carboxylic acid]
- IC50 [2]: 1.5 nM
